# Structures can show the parent of a compound that is named as a salt.
# Tested on: T47D
# Experiment: Cell viability assay (CellTiter Glo), T47D
# Format: cell-based, human
# Settings: Homo sapiens, T47D, 72 h, 72 h incubation, mean of independent triplicate experiments, read-out: In vitro anti-proliferative activity IC50, T47D ER+ PR+/- HER-
# Procedure: (§1) The antiproliferative activity of compound I as well as its newly synthesised analogues (5a–i) was evaluated in vitro against the three human breast cancer cell lines MDA-MB-231 (TNBC), T47D (ER^+, HER^−), and BT474 (ER^+, HER^+) as well as a human pancreatic cancer cell line MIAPaCa2. The seeding of the corresponding cell lines started one day before incubation, which lasted for 72 h with the different concentrations of the tested compounds. CellTiter Glo reagent (25 μL) was added to the cell plate. The luminescence was analysed after 10 min using a PerkinElmer Envision instrument. The test compounds were used at ten different triplicate concentrations in half log increments up to 100 μM.
row,IC50 [µM],Structure (SMILES)
1,14.7,"CC(C)(C)c1ccc(C(CN)c2ccccc2F)cc1 (centres unmarked) [5d, 2-(4-tert-butylphenyl)-2-(2-fluorophenyl)ethan-1-aminium chloride]"
2,> 100,"CN(C)CCN(Cc1ccc(Cl)cc1)c1ccccn1 [C4, chloropyramine hydrochloride, reference compound]"
3,13.4,"CC(C)(C)c1ccc(C(CN)c2ccc(F)cc2)cc1.Cl (centres unmarked) [5c, 2-(4-tert-butylphenyl)-2-(4-fluorophenyl)ethan-1-aminium chloride]"

# Tested on: MDA-MB-231
# Experiment: Cell viability assay (CellTiter Glo), MDA-MB-231
# Format: cell-based
# Settings: Homo sapiens, 72 h incubation, mean of independent triplicate experiments, read-out: In vitro anti-proliferative activity IC50, MDA-MB-231 ER- PR- HER-
# Procedure: as §1
row,IC50 [µM],Structure (SMILES)
1,14.8,"CC(C)(C)c1ccc(C(CN)c2ccccc2F)cc1 (centres unmarked) [5d, 2-(4-tert-butylphenyl)-2-(2-fluorophenyl)ethan-1-aminium chloride]"
2,99,"CN(C)CCN(Cc1ccc(Cl)cc1)c1ccccn1 [C4, chloropyramine hydrochloride, reference compound]"
3,12.8,"CC(C)(C)c1ccc(C(CN)c2ccc(F)cc2)cc1.Cl (centres unmarked) [5c, 2-(4-tert-butylphenyl)-2-(4-fluorophenyl)ethan-1-aminium chloride]"

# Tested on: not listed separately
# Experiment: Turbidimetric aqueous solubility
# Format: physicochemical
# Settings: buffered aqueous solution (PBS pH 7.4, 1% DMSO), 37 °C, 2 h
# Procedure: Both the estimated precipitation range (lower and upper bound) and a mid-range value were measured. Nicardipine and pyrene were used as control compounds.
# The test compound was diluted in buffer to give a range of concentrations (1, 3, 10, 30, and 100 μM; final DMSO concentration 1%) and incubated at 37 °C for 2 hr.
# The test compound (10 mM in DMSO) was serially diluted to give solutions of 0.1, 0.3, 1, and 3 mM in DMSO. Each test compound concentration was then further diluted 1 to 100 in buffer (typically 0.01 M phosphate buffered saline pH 7.4) so that the final DMSO concentration was 1%, and the final test compound concentrations were 1, 3, 10, 30, and 100 μM. The experiment was performed at 37 °C and each concentration was incubated in 7 replicate wells. The plates were incubated for 2 h at 37 °C before the absorbance was measured at 620 nm. Nicardipine and pyrene were included as control compounds. The solubility of nicardipine is pH dependent whereas the solubility of pyrene is pH independent.
# An estimated precipitation range (lower and upper bound) and a calculated mid-range value were returned, along with any relevant comments, in the form of an Excel spreadsheet.
"Estimated Precipitation Range, Calculated Mid-Range [µM]","Estimated Precipitation Range, Lower Bound [µM]","Estimated Precipitation Range, Upper Bound [µM]",Structure (SMILES)
>100,100,>100,"CC(C)(C)c1ccc(C(CN)c2ccc(F)cc2)cc1.Cl (centres unmarked) [5c, 2-(4-tert-butylphenyl)-2-(4-fluorophenyl)ethan-1-aminium chloride]"

# Same assay, conditions: turbidimetric, 37 °C, 2 h
row,Aqueous solubility (in words),Structure (SMILES)
1,high aqueous solubility,"CC(C)(C)c1ccc(C(CN)c2ccc(F)cc2)cc1.Cl (centres unmarked) [5c, 2-(4-tert-butylphenyl)-2-(4-fluorophenyl)ethan-1-aminium chloride]"

# Tested on: not given
# Experiment: not given
# Parameters: method as in PMID 19610651, PMID 24780592
# Settings: cited from earlier work
row,Structure (SMILES),Concentration at which anticancer activity is displayed [µM]
1,"CN(C)CCN(Cc1ccc(Cl)cc1)c1ccccn1 [C4, chloropyramine hydrochloride, reference compound]",> 100

# Tested on: MIAPaCa2
# Experiment: Cell viability assay (CellTiter Glo), MIAPaCa2
# Format: cell-based
# Settings: Homo sapiens, MIA PaCa-2, 72 h incubation, mean of independent triplicate experiments, read-out: In vitro anti-proliferative activity IC50, MIAPaCa2
# Procedure: as §1
row,IC50 [µM],Structure (SMILES)
1,15.8,"CC(C)(C)c1ccc(C(CN)c2ccccc2F)cc1 (centres unmarked) [5d, 2-(4-tert-butylphenyl)-2-(2-fluorophenyl)ethan-1-aminium chloride]"
2,> 100,"CN(C)CCN(Cc1ccc(Cl)cc1)c1ccccn1 [C4, chloropyramine hydrochloride, reference compound]"
3,15.1,"CC(C)(C)c1ccc(C(CN)c2ccc(F)cc2)cc1.Cl (centres unmarked) [5c, 2-(4-tert-butylphenyl)-2-(4-fluorophenyl)ethan-1-aminium chloride]"

# Tested on: not listed separately
# Experiment: Microsomal metabolic stability
# Settings: human liver microsomes, 0 min
# Procedure: Half-life (t1/2) values were measured at five time points.
# Intrinsic clearance values (CLint) with standard error and t1⁄2 values were measured.
# The final incubation volume was 50 μL. A minus cofactor control incubation was included for each compound tested where 0.1 M phosphate buffer pH 7.4 was added instead of NADPH (minus NADPH). Two control compounds were included with each species. All incubations were performed singularly for each test compound.
# The reactions were stopped by transferring 20 μL of incubate to 60 μL methanol at the appropriate time points. The termination plates were centrifuged at 2500 rpm for 20 min at 4 °C to precipitate the protein.
# Following protein precipitation, the sample supernatants were combined in cassettes of up to 4 compounds, the internal standard was added, and samples were analysed using Cyprotex generic LC-MS/MS conditions.
# From a plot of ln peak area ratio (compound peak area/internal standard peak area) against time, the gradient of the line was determined.
row,"Compound Remaining (% of 0 min), 0 min",Structure (SMILES)
1,100 % of 0 min,"CC(C)(C)c1ccc(C(CN)c2ccc(F)cc2)cc1.Cl (centres unmarked) [5c, 2-(4-tert-butylphenyl)-2-(4-fluorophenyl)ethan-1-aminium chloride]"

# Same assay, conditions: human liver microsomes, 5 min
row,"Compound Remaining (% of 0 min), 5 min",Structure (SMILES)
1,94.7 % of 0 min,"CC(C)(C)c1ccc(C(CN)c2ccc(F)cc2)cc1.Cl (centres unmarked) [5c, 2-(4-tert-butylphenyl)-2-(4-fluorophenyl)ethan-1-aminium chloride]"

# Same assay, conditions: human liver microsomes, 15 min
row,"Compound Remaining (% of 0 min), 15 min",Structure (SMILES)
1,95.0 % of 0 min,"CC(C)(C)c1ccc(C(CN)c2ccc(F)cc2)cc1.Cl (centres unmarked) [5c, 2-(4-tert-butylphenyl)-2-(4-fluorophenyl)ethan-1-aminium chloride]"

# Same assay, conditions: human liver microsomes, 30 min
row,"Compound Remaining (% of 0 min), 30 min",Structure (SMILES)
1,86.1 % of 0 min,"CC(C)(C)c1ccc(C(CN)c2ccc(F)cc2)cc1.Cl (centres unmarked) [5c, 2-(4-tert-butylphenyl)-2-(4-fluorophenyl)ethan-1-aminium chloride]"

# Same assay, conditions: human liver microsomes, 45 min
row,"Compound Remaining (% of 0 min), 45 min",Structure (SMILES)
1,82.5 % of 0 min,"CC(C)(C)c1ccc(C(CN)c2ccc(F)cc2)cc1.Cl (centres unmarked) [5c, 2-(4-tert-butylphenyl)-2-(4-fluorophenyl)ethan-1-aminium chloride]"

# Same assay, conditions: human liver microsomes, minus NADPH control, 45 min
row,"Compound Remaining (% of 0 min), Control",Structure (SMILES)
1,98.0 % of 0 min,"CC(C)(C)c1ccc(C(CN)c2ccc(F)cc2)cc1.Cl (centres unmarked) [5c, 2-(4-tert-butylphenyl)-2-(4-fluorophenyl)ethan-1-aminium chloride]"

# Same assay, conditions: human, pooled liver microsomes, pH 7.4
half-life at 3 μM [h],microsomal CLint at 3 μM [µL/min/mg],Structure (SMILES)
2.8,8.26,"CC(C)(C)c1ccc(C(CN)c2ccc(F)cc2)cc1.Cl (centres unmarked) [5c, 2-(4-tert-butylphenyl)-2-(4-fluorophenyl)ethan-1-aminium chloride]"

# Tested on: MDA-MB-231, T47D, BT474, and MIAPaCa2
# Experiment: Cell viability assay, statements across the four cell lines
# Format: cell-based, human
# Settings: three human breast and one pancreatic cancer cell line, up to 100 μM
# Procedure: as §1
row,Structure (SMILES),Anti-proliferative activity (in words) across the four cell lines
1,"CN(C)CCN(Cc1ccc(Cl)cc1)c1ccccn1 [C4, chloropyramine hydrochloride, reference compound]",did not show any significant anti-proliferative activity up to a concentration of 100 μM

# Tested on: BT474
# Experiment: Cell viability assay (CellTiter Glo), BT474
# Format: cell-based, human
# Settings: Homo sapiens, BT-474, 72 h, 72 h incubation, mean of independent triplicate experiments, read-out: In vitro anti-proliferative activity IC50, BT474 ER+ PR+/- HER+
# Procedure: as §1
row,IC50 [µM],Structure (SMILES)
1,14.8,"CC(C)(C)c1ccc(C(CN)c2ccccc2F)cc1 (centres unmarked) [5d, 2-(4-tert-butylphenyl)-2-(2-fluorophenyl)ethan-1-aminium chloride]"
2,> 100,"CN(C)CCN(Cc1ccc(Cl)cc1)c1ccccn1 [C4, chloropyramine hydrochloride, reference compound]"
3,8.94,"CC(C)(C)c1ccc(C(CN)c2ccc(F)cc2)cc1.Cl (centres unmarked) [5c, 2-(4-tert-butylphenyl)-2-(4-fluorophenyl)ethan-1-aminium chloride]"
